From article PMC4979012, “Structural basis for cytokinin production by LOG from Corynebacterium glutamicum” (Scientific Reports, 2016)

Key:
[1] = molecular target: T1, CgLOG (Cg2612) (Corynebacterium glutamicum, UniProt Q8NN34); experiment: phosphoribohydrolase assay, TLC with UV detection of adenine; format: biochemical; conditions: 20 mM AMP, 36 mM Tris-HCl pH 8.0, 30 °C, 23 μM enzyme
T1 construct: gene Cgl2379; full-length, C-terminal 6xHis (pET30a), E. coli BL21(DE3); dimer; residues 2-195 seen in crystal; active site at dimer interface
T1 sequence (Q8NN34 1-195): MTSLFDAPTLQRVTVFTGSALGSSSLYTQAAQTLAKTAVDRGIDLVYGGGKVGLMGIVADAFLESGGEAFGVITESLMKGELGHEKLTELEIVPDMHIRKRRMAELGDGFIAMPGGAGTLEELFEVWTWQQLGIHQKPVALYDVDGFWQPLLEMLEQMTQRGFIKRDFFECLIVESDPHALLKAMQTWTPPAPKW

[2] = molecular target: T2, CgLOG (Cg2612) (Corynebacterium glutamicum, UniProt Q8NN34, S19A); experiment: as above; format: biochemical; conditions: 20 mM AMP, 36 mM Tris-HCl pH 8.0, 30 °C, 23 μM enzyme
T2 construct: gene Cgl2379; full-length, C-terminal 6xHis (pET30a), E. coli BL21(DE3); dimer; residues 2-195 seen in crystal; active site at dimer interface
T2 sequence (Q8NN34 entry or part of it S19A): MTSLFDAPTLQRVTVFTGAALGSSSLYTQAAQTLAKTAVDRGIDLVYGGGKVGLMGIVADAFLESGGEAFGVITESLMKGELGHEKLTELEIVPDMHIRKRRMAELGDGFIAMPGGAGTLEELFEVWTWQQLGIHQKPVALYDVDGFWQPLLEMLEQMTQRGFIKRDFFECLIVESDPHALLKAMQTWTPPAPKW

[3] = molecular target: LOG from Corynebacterium glutamicum ATCC 13032 (gene product of Cg2612) (Corynebacterium glutamicum ATCC 13032); experiment: SEC; analytical, Superdex 200 10/300, 150 mM NaCl, 300 μL of 3 mg/ml protein; molecular weight from a calibration curve of standards
[4] = molecular target: LOG from Corynebacterium glutamicum ATCC 13032 (gene product of Cg2612) (Corynebacterium glutamicum ATCC 13032); experiment: SAXS; solution SAXS at 4 °C, CgLOG 0.5 ~ 4.5 mg/ml; molecular mass by the QR method

| Molecule | phosphoribohydrolase assay, TLC with UV detection of adenine [1] | phosphoribohydrolase assay, TLC with UV detection of adenine [2] | stoichiometry N [3] | stoichiometry N [4] |
| --- | --- | --- | --- | --- |
| Nc1ncnc2c1ncn2[C@@H]1O[C@H](COP(=O)(O)O)[C@@H](O)[C@H]1O [AMP] | we observed that Cg2612 has phosphoribohydrolase activity | One exception is S19A mutant which shows higher activity than the wild-type |  |  |
| LOG from Corynebacterium glutamicum ATCC 13032 (gene product of Cg2612) (enzyme) |  |  | 2 | 2 |
